Results published in PubChem BioAssay (NCI).
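Interpolation was linear, between the two tested concentrations surrounding the appropriate level; five concentrations were tested over 48 hours in 96-well plates. TGI: concentration producing complete growth inhibition.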

Assays:
Experiment in all cases: NCI anticancer screen, dose series, 48 h
[1] = system: OVCAR-4 ovarian
[2] = system: MDA-N
[3] = system: HS 578T breast
[4] = system: MALME-3M melanoma
[5] = system: EKVX NSCLC
[6] = system: SK-MEL-28 melanoma
[7] = system: ACHN renal
[8] = system: RXF 393 renal
[9] = system: IGROV1 ovarian
[10] = system: HCT-15 colon
[11] = system: SK-MEL-5 melanoma
[12] = system: SF-268 CNS
[13] = system: NCI-H522 lung
[14] = system: K-562 leukemia
[15] = system: RPMI-8226 leukemia
[16] = system: MOLT-4 leukemia
[17] = system: UACC-62 melanoma
[18] = system: NCI-H460 lung

Row | Compound | TGI [1] | TGI [2] | TGI [3] | TGI [4] | TGI [5] | TGI [6] | TGI [7] | TGI [8] | TGI [9] | TGI [10] | TGI [11] | TGI [12] | TGI [13] | TGI [14] | TGI [15] | TGI [16] | TGI [17] | TGI [18]
1 | O=C1NC(N2CCCC(CO)C2)=N/C1=C\c1ccc(Cl)cc1 (stereo unspecified) | > 100 µM | > 100 µM | > 100 µM | > 100 µM | > 100 µM | > 100 µM | > 100 µM | > 100 µM | > 100 µM | > 100 µM | > 100 µM | > 100 µM | > 100 µM | > 100 µM | > 100 µM | > 100 µM | > 100 µM | –
2 | O=C1/C(=C/c2ccco2)N=C(c2ccccc2)N1c1cc2cc(Sc3ccccc3)ccc2[nH]1 | > 25 µM | > 25 µM | > 25 µM | > 25 µM | > 25 µM | > 25 µM | > 25 µM | > 25 µM | > 25 µM | > 25 µM | – | > 25 µM | > 25 µM | > 25 µM | 2.4 µM | > 25 µM | > 25 µM | –
3 | Cc1ccc(S(=O)(=O)Oc2nc3ccccc3nc2N(S(=O)(=O)c2ccc(C)cc2)S(=O)(=O)c2ccc(C)cc2)cc1 | – | > 100 µM | > 100 µM | > 100 µM | > 100 µM | > 100 µM | > 100 µM | > 100 µM | > 100 µM | > 100 µM | > 100 µM | > 100 µM | > 100 µM | – | > 100 µM | > 100 µM | > 100 µM | > 100 µM
4 | CN(CCCNC(=O)c1nn(-c2ccc(Cl)cc2Cl)c2c1ccc1ccccc12)CCCNC(=O)c1nn(-c2ccc(Cl)cc2Cl)c2c1ccc1ccccc12 | 3.21 µM | 3.18 µM | 3.18 µM | 3.58 µM | 3.29 µM | – | 3.02 µM | 3.12 µM | 3.2 µM | 3.24 µM | 3.42 µM | 3.22 µM | 2.83 µM | 2.83 µM | 4.36 µM | 3.63 µM | 3.03 µM | 3.51 µM
5 | CC1OC(OC2C(O)COC(OC3C(C)OC(OC4C(OC(=O)[C@]56CCC(C)(C)C[C@@H]5C5=CCC7[C@@]8(C)C[C@H](O)[C@H](OC9OC(CO)C(O)C(OC%10OC(CO)C(O)C(O)C%10O)C9O)[C@@](C)(CO)[C@@H]8CC[C@@]7(C)[C@]5(C)CC6)OCC(O)C4O)C(O)C3O)C2O)C(O)C(O)C1O (stereo partly specified) | 34.4 µM | 32 µM | 40.9 µM | 30.8 µM | 26.1 µM | 22.9 µM | 34.5 µM | 27.9 µM | – | 38.7 µM | 30.3 µM | 39.7 µM | 31.4 µM | > 100 µM | 51.8 µM | 36.5 µM | 39.8 µM | 40.2 µM
6 | Clc1nc2n(c1/C=C/c1cccs1)CCS2 | > 100 µM | > 100 µM | > 100 µM | > 100 µM | > 100 µM | > 100 µM | > 100 µM | > 100 µM | > 100 µM | > 100 µM | 32.9 µM | > 100 µM | > 100 µM | > 100 µM | 48.7 µM | 35.2 µM | > 100 µM | –
7 | C=C(Cl)C(=C)CCC(Cl)C(C)C (stereo unspecified) | > 100 µM | > 100 µM | > 100 µM | > 100 µM | > 100 µM | > 100 µM | > 100 µM | > 100 µM | > 100 µM | – | > 100 µM | > 100 µM | > 100 µM | > 100 µM | > 100 µM | > 100 µM | > 100 µM | > 100 µM
8 | NC(=Nc1ccc(O)cc1)S(=O)O | > 100 µM | > 100 µM | > 100 µM | > 100 µM | > 100 µM | > 100 µM | > 100 µM | > 100 µM | > 100 µM | > 100 µM | > 100 µM | > 100 µM | > 100 µM | > 100 µM | > 100 µM | > 100 µM | > 100 µM | –
9 | Cc1ccc(S(=O)(=O)NC(=O)Nc2ccc(S(N)(=O)=O)cc2S(N)(=O)=O)cc1 | > 100 µM | > 100 µM | > 100 µM | > 100 µM | > 100 µM | > 100 µM | – | > 100 µM | > 100 µM | > 100 µM | > 100 µM | > 100 µM | > 100 µM | > 100 µM | > 100 µM | > 100 µM | > 100 µM | –
10 | COc1ccc(/C=C2\N=C(NN)N=C2Cl)cc1 | > 100 µM | > 100 µM | > 100 µM | > 100 µM | > 100 µM | > 100 µM | > 100 µM | > 100 µM | > 100 µM | > 100 µM | > 100 µM | > 100 µM | > 100 µM | > 100 µM | > 100 µM | > 100 µM | – | –
